Measured values: PubChem BioAssay (NCI)
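Assay format: 96-well plates, 48-hour exposure. Here, GI50 denotes the concentration required for 50% inhibition of growth. At the TGI there is no net growth.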

Columns and labels:
Assay in all cases: DTP human tumour cell line panel, 48 h
[1] = tested on: HL-60(TB) leukemia
[2] = tested on: T-47D breast
[3] = tested on: MDA-MB-231 breast
[4] = tested on: KM12 colon
[5] = tested on: OVCAR-4 ovarian
[6] = tested on: SK-MEL-5 melanoma
[7] = tested on: UO-31 renal
[8] = tested on: NCI-H460 lung
[9] = tested on: SK-MEL-2 melanoma
[10] = tested on: SR leukemia
[11] = tested on: SF-268 CNS
[12] = tested on: HCC-2998 colon
[13] = tested on: HOP-92 NSCLC
[14] = tested on: SW-620 colon
[15] = tested on: K-562 leukemia
[16] = tested on: A498 renal
[17] = tested on: NCI-H522 lung
[18] = tested on: A549 NSCLC
[19] = tested on: IGROV1 ovarian
[20] = tested on: HT29 colon
[21] = tested on: CCRF-CEM leukemia
[22] = tested on: NCI/ADR-RES ovarian
[23] = tested on: NCI-H23 lung
[24] = tested on: BT-549 breast
[25] = tested on: SNB-75 CNS
[26] = tested on: OVCAR-5 ovarian
[27] = tested on: SN12C renal
[28] = tested on: M14 melanoma
[29] = tested on: HS 578T breast
[30] = tested on: HCT-15 colon
[31] = tested on: SNB-19 CNS
[32] = tested on: MDA-MB-435
[33] = tested on: SK-OV-3 ovarian
[34] = tested on: TK-10 renal
[35] = tested on: OVCAR-8 ovarian
[36] = tested on: LOX IMVI melanoma
[37] = tested on: RXF 393 renal
[38] = tested on: COLO 205 colon
[39] = tested on: 786-0 renal
[40] = tested on: SK-MEL-28 melanoma
[41] = tested on: PC-3 prostate
[42] = tested on: CAKI-1 renal
[43] = tested on: SF-295 CNS
[44] = tested on: UACC-257 melanoma
[45] = tested on: U251 CNS
[46] = tested on: ACHN renal
[47] = tested on: UACC-62 melanoma
[48] = tested on: OVCAR-3 ovarian
[49] = tested on: HCT-116 colon
[50] = tested on: DU-145 prostate
[51] = tested on: MALME-3M melanoma
[52] = tested on: SF-539 CNS
[53] = tested on: RPMI-8226 leukemia
[54] = tested on: HOP-62 NSCLC
[55] = tested on: EKVX NSCLC
[56] = tested on: MCF7 breast
[57] = tested on: NCI-H226 lung

For CC1CN=C(c2cccc(-c3ccc(-c4ccccc4)o3)c2)N1 (centres undefined), the GI50 [1] was 2.28 µM, the TGI [1] was 4.7 µM and the GI50 [2] was 1.92 µM. The TGI [2] was 5.05 µM, the GI50 [3] was 2.2 µM and the TGI [3] was 4.49 µM. For the same compound, the GI50 [4] was 2.66 µM, the TGI [4] was 7.92 µM and the GI50 [5] was 3.01 µM. The TGI [5] was 19.5 µM, the GI50 [6] was 1.71 µM and the TGI [6] was 3.11 µM. For the same compound, the GI50 [7] was 1.62 µM, the TGI [7] was 3.32 µM and the GI50 [8] was 1.83 µM. It also gave a TGI [8] of 4.24 µM, a GI50 [9] of 1.74 µM and a TGI [9] of 3.57 µM. For the same compound, the GI50 [10] was 1.86 µM, the TGI [10] was 5.32 µM and the GI50 [11] was 1.83 µM. For the same compound, the TGI [11] was 3.78 µM, the GI50 [12] was 1.95 µM and the TGI [12] was 3.65 µM. The GI50 [13] was 2.13 µM, the TGI [13] was 5.67 µM and the GI50 [14] was 1.85 µM. The TGI [14] was 3.69 µM, the GI50 [15] was 1.72 µM and the TGI [15] was 3.91 µM. For the same compound, the GI50 [16] was 2.74 µM, the TGI [16] was 10.6 µM and the GI50 [17] was 1.67 µM. The TGI [17] was 3.65 µM, the GI50 [18] was 3.68 µM and the TGI [18] was 11.2 µM. It also gave a GI50 [19] of 2.08 µM, a TGI [19] of 5.14 µM and a GI50 [20] of 2.39 µM. It also gave a TGI [20] of 4.93 µM, a GI50 [21] of 2.44 µM and a TGI [21] of 6.78 µM. It also gave a GI50 [22] of 3.57 µM, a TGI [22] of 25.9 µM and a GI50 [23] of 2.97 µM. For the same compound, the TGI [23] was 12.5 µM, the GI50 [24] was 10.5 µM and the TGI [24] was 22.5 µM. It also gave a GI50 [25] of 1.47 µM, a TGI [25] of 2.84 µM and a GI50 [26] of 2.11 µM. It also gave a TGI [26] of 5.41 µM, a GI50 [27] of 3.59 µM and a TGI [27] of 15.4 µM. The GI50 [28] was 2.23 µM, the TGI [28] was 5.63 µM and the GI50 [29] was 2.57 µM. It also gave a TGI [29] of 7.26 µM, a GI50 [30] of 1.66 µM and a TGI [30] of 3.47 µM. The GI50 [31] was 2.29 µM, the TGI [31] was 5.47 µM and the GI50 [32] was 1.61 µM. The TGI [32] was 2.99 µM, the GI50 [33] was 4.2 µM and the TGI [33] was 14.8 µM. It also gave a GI50 [34] of 4.04 µM, a TGI [34] of 14.4 µM and a GI50 [35] of 5.98 µM. It also gave a TGI [35] of 23.2 µM, a GI50 [36] of 1.73 µM and a TGI [36] of 3.22 µM. The GI50 [37] was 1.72 µM, the TGI [37] was 3.36 µM and the GI50 [38] was 1.61 µM. It also gave a TGI [38] of 3.25 µM, a GI50 [39] of 1.84 µM and a TGI [39] of 3.8 µM. It also gave a GI50 [40] of 1.81 µM, a TGI [40] of 4.02 µM and a GI50 [41] of 2.04 µM. For the same compound, the TGI [41] was 5.17 µM, the GI50 [42] was 2.55 µM and the TGI [42] was 9.19 µM. For the same compound, the GI50 [43] was 1.81 µM, the TGI [43] was 3.84 µM and the GI50 [44] was 2.31 µM. For the same compound, the TGI [44] was 4.62 µM, the GI50 [45] was 2.47 µM and the TGI [45] was 5.88 µM. It also gave a GI50 [46] of 1.85 µM, a TGI [46] of 3.89 µM and a GI50 [47] of 1.94 µM. For the same compound, the TGI [47] was 4.06 µM, the GI50 [48] was 3.47 µM and the TGI [48] was 13.7 µM. The GI50 [49] was 1.81 µM, the TGI [49] was 3.69 µM and the GI50 [50] was 4.05 µM. For the same compound, the TGI [50] was 15.8 µM, the GI50 [51] was 1.82 µM and the TGI [51] was 3.63 µM. The GI50 [52] was 1.76 µM, the TGI [52] was 3.42 µM and the GI50 [53] was 2.43 µM. The TGI [53] was 7.05 µM, the GI50 [54] was 2.6 µM and the TGI [54] was 6.37 µM. It also gave a GI50 [55] of 4.35 µM, a TGI [55] of 18.9 µM and a GI50 [56] of 1.71 µM. It also gave a TGI [56] of 3.59 µM, a GI50 [57] of 14.3 µM and a TGI [57] of 39.4 µM.
